Source: US11369565B2, “Amino-pyrimidine skeletal muscle modulators” (Cytokinetics, Inc., priority 2010, dated 2022)

The compounds below were run on rabbit skeletal myofibrils (approximately 90% fast fibers) (assay: Activation of fast skeletal myofibrils (PUMA coupled-enzyme ATPase assay at pCa25)). Settings: concentration at which the compound increased the enzymatic activity by 40%; calcium at pCa25; PM12 buffer pH 6.8.
Assay type: biochemical
Method in brief: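 In pH 6.8 PM12 buffer (12 mM Pipes, 2 mM MgCl2, 1 mM DTT), ADP from myosin regenerated via pyruvate kinase/lactate dehydrogenase, with absorbance change at 340 nm from NADH oxidation as read-out. Calcium set at pCa25; Triton-washed rabbit skeletal myofibrils (about 90% fast fibres) used.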

With `O=C(O)c1cnc(NC2(c3ncccc3F)CCC2)nc1C(F)(F)F` [2-{[(3-fluoro(2-pyridyl))cyclobutyl]amino}-4-(trifluoromethyl)pyrimidine-5-carboxylic acid] as the compound, how does the “Mean AC1.4” value read?
Its value is “D (D=>20 uM)”.

`N#Cc1cnc(NC2(c3ncccc3F)CCC2)nc1` [2-{[(3-fluoro-2-pyridyl)cyclobutyl]amino} pyrimidine-5-carbonitrile] was tested. Which “Mean AC1.4” value did it give?
Its value is “D (D=>20 uM)”.

For `NC(=O)c1ccc2nc(NC3(c4ncccc4F)CCC3)ncc2c1` [2-{[(3-fluoro-2-pyridyl)cyclobutyl]amino} quinazoline-6-carboxamide], which “Mean AC1.4” value is on record?
The value was “D (D=>20 uM)”.

`NC(=O)c1cnc(NC2(c3ncccc3F)CCC2)nc1` [2-{[(3-fluoro-2-pyridyl)cyclobutyl]amino}pyrimidine-5-carboxamide] was tested. Which “Mean AC1.4” value did it give?
The value was “D (D=>20 uM)”.

`N#Cc1ccc2nc(NC3(c4ncccc4F)CCC3)ncc2c1` [2-{[(3-fluoro-2-pyridyl)cyclobutyl]amino}quinazoline-6-carbonitrile] was tested. Which “Mean AC1.4” value did it give?
The value was “D (D=>20 uM)”.

With `N#Cc1ccnc(NC2(c3ccc(F)cc3)CCC2)n1` [2-{[(4-fluorophenyl)cyclobutyl]amino} pyrimidine-4-carbonitrile] as the compound, how does the “Mean AC1.4” value read?
Its value is “D (D=>20 uM)”.

`NC(=O)c1ccnc(NC2(c3ccc(F)cc3)CCC2)n1` [2-{[(4-fluorophenyl)cyclobutyl]amino} pyrimidine-4-carboxamide] was tested. Which “Mean AC1.4” value did it give?
Its value is “C (C=10-20 uM)”.

`N#Cc1cnc(NC2(c3ccc(F)cc3)CCC2)nc1` [2-{[(4-fluorophenyl)cyclobutyl]amino} pyrimidine-5-carbonitrile] was tested. Which “Mean AC1.4” value did it give?
The value was “C (C=10-20 uM)”.

How did the “Mean AC1.4” value turn out when `NC(=O)c1cnc(NC2(c3ccc(F)cc3)CCC2)nc1` [2-{[(4-fluorophenyl)cyclobutyl]amino} pyrimidine-5-carboxamide] was run?
The value was “D (D=>20 uM)”.

With `NC(=O)c1cnc(NC2(c3ccc(F)cc3)CCC2)nc1C(F)(F)F` [2-{[(4-fluorophenyl)cyclobutyl]amino}-4-(trifluoromethyl)pyrimidine-5-carboxamide] as the compound, how does the “Mean AC1.4” value read?
The value was “B (B=1-10 uM)”.

How did the “Mean AC1.4” value turn out when `O=C(O)c1cnc(NC2(c3ccc(F)cc3)CCC2)nc1C(F)(F)F` [2-{[(4-fluorophenyl)cyclobutyl]amino}-4-(trifluoromethyl)pyrimidine-5-carboxylic acid] was run?
The value was “D (D=>20 uM)”.

`C[S+]([O-])c1ccccc1C(C)(C)Nc1ncc(-c2cccc(C(N)=O)c2)cn1` (stereo not shown) [3-(2-(2-(2-(methylsulfinyl)phenyl)propan-2-ylamino)pyrimidin-5-yl)benzamide] was tested. Which “Mean AC1.4” value did it give?
The value was “D (D=>20 uM)”.

Which “Mean AC1.4” value does the source give for `C[S+]([O-])c1cccnc1C(C)(C)Nc1ncc(-c2cccc(C(N)=O)c2)cn1` (stereo not shown) [3-(2-(2-(3-(methylsulfinyl)pyridin-2-yl)propan-2-ylamino)pyrimidin-5-yl)benzamide] here?
Its value is “D (D=>20 uM)”.

`C[S+]([O-])c1ccc(C(C)(C)Nc2ncc(-c3cccc(C(N)=O)c3)cn2)cc1` (stereo not shown) [3-(2-(2-(4-(methylsulfinyl)phenyl)propan-2-ylamino)pyrimidin-5-yl)benzamide] was tested. Which “Mean AC1.4” value did it give?
Its value is “D (D=>20 uM)”.

For `NC(=O)c1cccc(-c2cnc(N)nc2)c1` [3-(2-aminopyrimidin-5-yl)benzamide], which “Mean AC1.4” value is on record?
Its value is “D (D=>20 uM)”.

With `CC(C)(Nc1ncc(-c2cc(C(N)=O)ccc2F)cn1)c1cccnc1Cl` [3-(2-{[1-(2-chloro(3-pyridyl))-isopropyl]amino}pyrimidin-5-yl)-4-fluorobenzamide] as the compound, how does the “Mean AC1.4” value read?
Its value is “B (B=1-10 uM)”.

`NC(=O)c1ccc(F)c(-c2cnc(N[C@]3(c4ncccc4Cl)C[C@H](F)C3)nc2)c1` [3-(2-{[1-(3-chloro(2-pyridyl))-3-fluorocyclobutyl]amino}pyrimidin-5-yl)-4-fluorobenzamide] was tested. Which “Mean AC1.4” value did it give?
Its value is “A (A=<1 uM)”.

With `CC(C)(Nc1ncc(-c2noc(C(N)=O)n2)cn1)c1ncccc1Cl` [3-(2-{[1-(3-chloro(2-pyridyl))-isopropyl]amino}pyrimidin-5-yl)-1,2,4-oxadiazole-5-carboxamide] as the compound, how does the “Mean AC1.4” value read?
Its value is “D (D=>20 uM)”.

How did the “Mean AC1.4” value turn out when `Cn1nc(-c2cnc(NC(C)(C)c3ncccc3Cl)nc2)cc1C(N)=O` [3-(2-{[1-(3-chloro(2-pyridyl))-isopropyl]amino}pyrimidin-5-yl)-1-methylpyrazole-5-carboxamide] was run?
Its value is “D (D=>20 uM)”.

With `CC(C)(Nc1ncc(-c2cc(C(N)=O)ccc2F)cn1)c1ncccc1Cl` [3-(2-{[1-(3-chloro(2-pyridyl))-isopropyl]amino}pyrimidin-5-yl)-4-fluorobenzamide] as the compound, how does the “Mean AC1.4” value read?
The value was “A (A=<1 uM)”.

Which “Mean AC1.4” value does the source give for `CC(C)(Nc1ncc(-c2cccc(C(N)=O)c2)cn1)c1ncccc1Cl` [3-(2-{[1-(3-chloro(2-pyridyl))-isopropyl]amino}pyrimidin-5-yl)benzamide] here?
The value was “A (A=<1 uM)”.

How did the “Mean AC1.4” value turn out when `CC(C)(Nc1ncc(-c2cc(C(N)=O)on2)cn1)c1ncccc1Cl` [3-(2-{[1-(3-chloro(2-pyridyl))-isopropyl]amino}pyrimidin-5-yl)isoxazole-5-carboxamide] was run?
Its value is “C (C=10-20 uM)”.

With `COc1ccc(Cl)c(C(C)(C)Nc2ncc(-c3cccc(C(N)=O)c3)cn2)n1` [3-(2-{[1-(3-chloro-6-methoxy(2-pyridyl))-isopropyl]amino}pyrimidin-5-yl)benzamide] as the compound, how does the “Mean AC1.4” value read?
Its value is “A (A=<1 uM)”.

`CC(C)(Nc1ncc(-c2cccc(C(N)=O)c2)cn1)c1ncccc1F` [3-(2-{[1-(3-fluoro(2-pyridyl))-isopropyl]amino}pyrimidin-5-yl)benzamide] was tested. Which “Mean AC1.4” value did it give?
Its value is “B (B=1-10 uM)”.

With `CSc1ccccc1C(C)(C)Nc1ncc(-c2cccc(C(N)=O)c2)cn1` [3-(2-{[1-methyl-1-(2-methylthiophenyl)ethyl]amino}pyrimidin-5-yl)benzamide] as the compound, how does the “Mean AC1.4” value read?
The value was “A (A=<1 uM)”.

With `CSc1ccccc1C(C)(C)Nc1ncc(-c2cccc(C#N)c2)cn1` [3-(2-{[1-methyl-1-(2-methylthiophenyl)ethyl]amino}pyrimidin-5-yl)benzenecarbonitrile] as the compound, how does the “Mean AC1.4” value read?
Its value is “A (A=<1 uM)”.

`CSc1cccnc1C(C)(C)Nc1ncc(-c2cccc(C(N)=O)c2)cn1` [3-(2-{[1-methyl-1-(3-methylthio(2-pyridyl))ethyl]amino}pyrimidin-5-yl)benzamide] was tested. Which “Mean AC1.4” value did it give?
Its value is “B (B=1-10 uM)”.

How did the “Mean AC1.4” value turn out when `CSc1cccnc1C(C)(C)Nc1ncc(-c2cccc(C#N)c2)cn1` [3-(2-{[1-methyl-1-(3-methylthio(2-pyridyl))ethyl]amino}pyrimidin-5-yl)benzenecarbonitrile] was run?
The value was “B (B=1-10 uM)”.

With `CSc1ccc(C(C)(C)Nc2ncc(-c3cccc(C#N)c3)cn2)cc1` [3-(2-{[1-methyl-1-(4-methylthiophenyl)ethyl]amino}pyrimidin-5-yl)benzenecarbonitrile] as the compound, how does the “Mean AC1.4” value read?
The value was “D (D=>20 uM)”.

With `CC(C)(CNc1ncc(-c2cc(C(N)=O)ccc2F)cn1)c1ncccc1Cl` [3-(2-{[2-(3-chloro(2-pyridyl))-2-methylpropyl]amino}pyrimidin-5-yl)-4-fluorobenzamide] as the compound, how does the “Mean AC1.4” value read?
Its value is “A (A=<1 uM)”.

With `CC(C)(CNc1ncc(-c2cccc(C(N)=O)c2)cn1)c1ncccc1Cl` [3-(2-{[2-(3-chloro(2-pyridyl))-2-methylpropyl]amino}pyrimidin-5-yl)benzamide] as the compound, how does the “Mean AC1.4” value read?
Its value is “A (A=<1 uM)”.

Which “Mean AC1.4” value does the source give for `CC(C)(CNc1ncc(-c2cccc(C(N)=O)c2)cn1)c1ncccc1F` [3-(2-{[2-(3-fluoro(2-pyridyl))-2-methylpropyl]amino}pyrimidin-5-yl)benzamide] here?
Its value is “B (B=1-10 uM)”.

Which “Mean AC1.4” value does the source give for `CC(C)(CNc1ncc(-c2cccc(C(N)=O)c2)cn1)c1ccc(F)cc1` [3-(2-{[2-(4-fluorophenyl)-2-methylpropyl]amino}pyrimidin-5-yl)benzamide] here?
The value was “A (A=<1 uM)”.

For `NC(=O)c1cccc(-c2cnc(NCC3(c4ccccn4)CCC3)nc2)c1` [3-(2-{[(2 pyridylcyclobutyl)methyl]amino}pyrimidin-5-yl)benzamide], which “Mean AC1.4” value is on record?
The value was “B (B=1-10 uM)”.

Which “Mean AC1.4” value does the source give for `CC(C)(Nc1ncc(-c2cc(C(N)=O)ccc2F)cn1)c1ncccc1C(F)F` [3-[2-({1-[3-(difluoromethyl)(2-pyridyl)]-isopropyl)amino)pyrimidin-5-yl]-4-fluorobenzamide] here?
Its value is “B (B=1-10 uM)”.

Which “Mean AC1.4” value does the source give for `CC(C)(Nc1ncc(-c2cc(C(N)=O)ccc2F)cn1)c1cccc(OC(F)F)n1` [3-[2-({1-[6-(difitioromethoxy)(2-pyridyl)]-isopropyl}amino)pyrimidin-5-yl]-4-fluorobenzamide] here?
Its value is “A (A=<1 uM)”.

How did the “Mean AC1.4” value turn out when `CC(C)(Nc1ncc(-c2cccc(C(N)=O)c2)cn1)c1cccc(OC(F)F)n1` [3-[2-({1-[6-(difluoromethoxy)(2-pyridyl)]-isopropyl}amino)pyrimidin-5-yl]benzamide] was run?
Its value is “A (A=<1 uM)”.

`CC(C)(Nc1ncc(-c2cccc(C(N)=O)c2)cn1)c1ccccc1S(C)(=O)=O` [3-[2-({1-methyl-1-[2-(methylsulfonyl)phenyl]ethyl}amino)pyrimidin-5-yl]benzamide] was tested. Which “Mean AC1.4” value did it give?
The value was “D (D=>20 uM)”.

With `CC(C)(c1ncccc1S(C)(=O)=O)N(O)c1ncc(-c2cccc(C(N)=O)c2)cn1` [3-[2-({1-methyl-1-[3-(methylsulfonyl)(2-pyridyl)]ethyl}(hydroxyamino))pyrimidin-5-yl]benzamide] as the compound, how does the “Mean AC1.4” value read?
Its value is “D (D=>20 uM)”.

Which “Mean AC1.4” value does the source give for `CC(C)(Nc1ncc(-c2cccc(C(N)=O)c2)cn1)c1ncccc1S(C)(=O)=O` [3-[2-({1-methyl-1-[3-(methylsulfonyl)(2-pyridyl)]ethyl}amino)pyrimidin-5-yl]benzamide] here?
Its value is “D (D=>20 uM)”.

With `CC(C)(Nc1ncc(-c2cccc(C(N)=O)c2)cn1)c1ccc(S(C)(=O)=O)cc1` [3-[2-({1-methyl-1-[4-(methylsulfonyl)phenyl]ethyl}amino)pyrimidin-5-yl)benzamide] as the compound, how does the “Mean AC1.4” value read?
Its value is “D (D=>20 uM)”.

`CC(C)(Nc1ncc(-c2cc(C#N)ccc2F)cn1)c1ncccc1C(F)F` [3-[2-({1[3-(difluoromethyl)(2-pyridyl)]-isopropyl}amino)pyrimidin-5-yl]-4-fluorobenzenecarbonitrile] was tested. Which “Mean AC1.4” value did it give?
The value was “B (B=1-10 uM)”.

For `NC(=O)c1ccc(F)c(-c2cnc(NCC3(c4ncccc4Cl)CC(F)(F)C3)nc2)c1` [3-[2-({[1-(3-chloro(2-pyridyl))-3,3-difluorocyclobutyl]methyl}amino)pyrimidin-5-yl]-4-fluorobenzamide], which “Mean AC1.4” value is on record?
The value was “A (A=<1 uM)”.
